Assay results published in paper PMC7158045 (BMC Plant Biology, 2020).
Structures can show the parent of a compound that is named as a salt.

Key:
Test in all cases: biochemical
ZmDRIK1-K217-S514 = target: T1, ZmDRIK1-K217-S514 (Zea mays, UniProt C0P4K9); conditions: read-out: dTm B, sheet ZmDRIK1-K217-S514;; DSF, Boltzmann fit, 0.1% DMSO
T1 construct: kinase domain, K217-S514
T1 sequence (C0P4K9 1-514): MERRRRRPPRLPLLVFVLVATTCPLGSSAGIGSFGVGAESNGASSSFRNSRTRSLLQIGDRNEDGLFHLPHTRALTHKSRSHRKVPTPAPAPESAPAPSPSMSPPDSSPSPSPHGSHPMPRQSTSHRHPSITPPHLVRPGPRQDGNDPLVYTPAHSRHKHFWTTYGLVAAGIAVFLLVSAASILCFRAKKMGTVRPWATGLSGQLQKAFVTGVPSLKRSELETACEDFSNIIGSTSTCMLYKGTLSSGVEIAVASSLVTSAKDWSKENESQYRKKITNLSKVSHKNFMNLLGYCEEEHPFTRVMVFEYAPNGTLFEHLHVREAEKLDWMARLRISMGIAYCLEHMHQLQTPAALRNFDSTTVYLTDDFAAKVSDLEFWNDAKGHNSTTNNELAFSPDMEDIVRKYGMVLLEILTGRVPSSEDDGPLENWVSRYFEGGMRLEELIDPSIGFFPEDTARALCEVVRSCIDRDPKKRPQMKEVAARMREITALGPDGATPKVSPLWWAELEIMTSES

ZmDRIK1-K217-P492 = target: T2, ZmDRIK1-K217-P492 (Zea mays, UniProt C0P4K9); conditions: read-out: dTm B, sheet ZmDRIK1-K217-P492;; DSF, Boltzmann fit, 0.1% DMSO
T2 construct: kinase domain, K217-P492
T2 sequence (C0P4K9 1-514): T1 sequence (C0P4K9 1-514)

[1] = target: T3, ZmDRIK1 (DROUGHT RESPONSIVE INACTIVE KINASE 1), kinase domain (Zea mays, UniProt C0P4K9); conditions: read-out: dTm B, sheet ZmDRIK1-R187-S514;; DSF, Boltzmann fit, 0.1% DMSO
T3 construct: gene ZEAMMB73_Zm00001d028770; ZmDRIK1-KD R187-S514 (kinase domain)
T3 sequence (C0P4K9 187-514): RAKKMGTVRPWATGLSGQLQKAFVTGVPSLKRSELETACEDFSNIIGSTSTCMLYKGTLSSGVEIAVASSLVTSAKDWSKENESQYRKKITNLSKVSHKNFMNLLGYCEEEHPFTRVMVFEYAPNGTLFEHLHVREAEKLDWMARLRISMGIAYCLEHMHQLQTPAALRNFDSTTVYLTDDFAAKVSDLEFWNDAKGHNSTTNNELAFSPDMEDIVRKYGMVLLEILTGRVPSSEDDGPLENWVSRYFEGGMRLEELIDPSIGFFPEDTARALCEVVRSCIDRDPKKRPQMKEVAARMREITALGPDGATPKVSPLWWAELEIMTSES

ZmDRIK1-R187-P492 = target: T4, ZmDRIK1-R187-P492 (Zea mays, UniProt C0P4K9); conditions: read-out: dTm B, DSF, Boltzmann fit, 0.1% DMSO
T4 construct: kinase domain, R187-P492
T4 sequence (C0P4K9 1-514): T1 sequence (C0P4K9 1-514)

SMILES | ΔTm at 10 µM (ZmDRIK1-K217-S514) | ΔTm at 10 µM (ZmDRIK1-K217-P492) | ΔTm at 10 µM [1] | ΔTm at 10 µM (ZmDRIK1-R187-P492)
Cc1ccc([N+](=O)[O-])cc1S(=O)(=O)N(C)/N=C/c1cnc2ccc(Br)cn12 [PIK-75] | -0.221 °C | -1.46 °C | -0.734 °C | -0.296 °C
CCN(CC)CCNC(=O)c1c(C)[nH]c(/C=C2\C(=O)Nc3ccc(F)cc32)c1C [Sunitinib Malate] | -0.287 °C | -0.864 °C | -0.745 °C | -0.348 °C
O=C(O)c1ccc(-c2c[nH]c3ncc(-c4ccccc4)cc23)cc1C1CCCC1 [GSK650394] | -0.353 °C | -1.03 °C | -0.785 °C | -0.485 °C
CN1CC[C@H](c2c(O)cc(O)c3c(=O)cc(-c4ccccc4Cl)oc23)[C@H](O)C1 [Flavopiridol HCl] | -0.391 °C | -1.16 °C | -0.837 °C | -0.272 °C
CC1=C(C(=O)Nc2cc3cn[nH]c3cc2F)C(c2ccc(C(F)(F)F)cc2)CC(=O)N1 (stereo not shown) [GSK429286A] | -0.373 °C | -1.02 °C | -0.758 °C | -0.447 °C
COc1cc(F)c(F)c(Nc2ccc(I)cc2F)c1NS(=O)(=O)C1(C[C@H](O)CO)CC1 [Refametinib (RDEA119)] | -0.254 °C | -0.93 °C | -1.12 °C | -0.163 °C
O=C(NC1CCNCC1)c1n[nH]cc1NC(=O)c1c(Cl)cccc1Cl [AT7519] | -0.106 °C | 0.0166 °C | -0.866 °C | 0.0148 °C
COc1cc(Nc2c(C#N)cnc3cc(OCCCN4CCN(C)CC4)c(OC)cc23)c(Cl)cc1Cl [Bosutinib (SKI-606)] | -0.473 °C | -1.46 °C | -0.814 °C | -0.491 °C
CCn1c2ccccc2c2cc(Nc3ccnc(NCCCN4CCOCC4)n3)ccc21 [EHop-016] | -0.29 °C | -1.16 °C | -0.693 °C | -0.204 °C
CCCCOc1c(C(=O)c2c(F)cc(C)cc2F)c[nH]c2nncc1-2 [BMS-265246] | -0.226 °C | -1.05 °C | -0.676 °C | -0.249 °C
O=C1c2ccc(Nc3ccc(F)cc3F)cc2CCc2ccc(OC[C@H](O)CO)cc21 [Skepinone-L] | -0.642 °C | -0.992 °C | -0.803 °C | -0.481 °C
O=C(c1ccc(/C=C/c2n[nH]c3ccccc23)cc1)N1CCNCC1 [KW-2449] | -0.13 °C | -0.672 °C | -0.807 °C | -0.0311 °C
N#CC(C#N)=Cc1ccc(O)c(O)c1 [AG-18] | -0.556 °C | -0.987 °C | -1.16 °C | -0.457 °C
O=C(Nc1cc(C(F)(F)F)cc(C(F)(F)F)c1)c1cc(Cl)ccc1O [IMD 0354] | 1.2 °C | 0.526 °C | -0.239 °C | 0.639 °C
C=CC(=O)Nc1ccc2ncnc(Nc3ccc(OCc4cccc(F)c4)c(Cl)c3)c2c1 [AST-1306] | -1.18 °C | -1.48 °C | -7.98 °C | -5.11 °C
NC(=O)c1ccc(N(C(N)=O)c2c(F)cccc2F)nc1-c1ccc(F)cc1F [VX-702] | -0.374 °C | -0.792 °C | -0.444 °C | -0.499 °C
NC1(Cc2ccc(Cl)cc2)CCN(c2ncnc3[nH]ccc23)CC1 [CCT128930] | -0.48 °C | -1.15 °C | -0.523 °C | -0.325 °C
O=C(Nc1cccc(Cl)c1)Nc1ncc(CCNc2ncnc3ccsc23)s1 [SNS-314 Mesylate] | -1.86 °C | -0.277 °C | -23.9 °C | 0.159 °C
C=CC(=O)Nc1cccc(Oc2nc(Nc3ccc(N4CCN(C)CC4)cc3)ncc2Cl)c1 [WZ3146] | -0.0548 °C | -0.696 °C | -0.897 °C | -0.00788 °C

SMILES | ΔTm at 10 µM (ZmDRIK1-K217-S514) | ΔTm at 10 µM (ZmDRIK1-K217-P492) | ΔTm at 10 µM [1] | ΔTm at 10 µM (ZmDRIK1-R187-P492)
NC1(c2ccc(-c3nc4ccn5c(=O)[nH]nc5c4cc3-c3ccccc3)cc2)CCC1 [MK-2206 2HCl] | -0.181 °C | -0.178 °C | -1.02 °C | -0.104 °C
O=c1cc(-c2cccc3c2Sc2ccccc2S3)oc(N2CCOCC2)c1 [KU-55933 (ATM Kinase Inhibitor)] | -0.342 °C | -1.32 °C | -0.601 °C | -0.282 °C
Cn1cc(-c2cnn3c(N)c(Br)c([C@@H]4CCCNC4)nc23)cn1 [MK-8776 (SCH 900776)] | -0.293 °C | -0.951 °C | -0.736 °C | -0.226 °C
O=S(=O)(c1cccc2cnccc12)N1CCCNCC1 [Fasudil (HA-1077) HCl] | -0.253 °C | -0.949 °C | -0.908 °C | -0.0771 °C
COc1cc2c(Oc3ccc4[nH]c(C)cc4c3F)ncnc2cc1OCCCN1CCCC1 [Cediranib (AZD2171)] | -0.229 °C | -1.09 °C | -0.769 °C | -0.191 °C
Nc1ncnc2c1c(-c1cccc(OCc3ccccc3)c1)cn2C1CC(CN2CCCC2)C1 (stereo in doubt) [NVP-ADW742] | -0.731 °C | -0.671 °C | -1.07 °C | -0.18 °C
O=C1NCCc2[nH]c(-c3ccncc3)cc21 [PHA-767491] | -0.125 °C | -0.984 °C | -0.701 °C | -0.213 °C
O=C1NC(=O)/C(=C/c2ccc3c(c2)OC(F)(F)O3)S1 [AS-604850] | -0.526 °C | -0.999 °C | -0.905 °C | -0.284 °C
Cc1cc(Nc2nc(N[C@@H](C)c3ccc(F)cc3)c(C#N)cc2F)n[nH]1 [AZ 960] | -0.27 °C | -0.533 °C | -0.939 °C | -0.311 °C
C=CC(=O)Nc1cccc(Sc2nc(Nc3ccc(N4CCN(C)CC4)cc3)ncc2Cl)c1 [WZ8040] | -0.291 °C | -0.667 °C | -0.927 °C | -0.275 °C
CN1CCC(CNc2ccc3ncc(-c4cccc(OC(F)(F)F)c4)n3n2)CC1 [SGI-1776 free base] | -0.336 °C | -0.576 °C | -1.1 °C | -0.27 °C
Cc1cnc(Nc2ccc(OCCN3CCCC3)cc2)nc1Nc1cccc(S(=O)(=O)NC(C)(C)C)c1 [TG101348 (SAR302503)] | -0.238 °C | -0.974 °C | -0.804 °C | -0.567 °C
Cc1cc2c(F)c(Oc3ncnn4cc(OC[C@@H](C)O)c(C)c34)ccc2[nH]1 [Brivanib (BMS-540215)] | -0.0833 °C | -0.796 °C | -1.28 °C | -0.365 °C
CCS(=O)(=O)c1cccc(-c2cc(C(=O)NC3CCN(C)CC3)c(C)c3[nH]c4ncc(C)cc4c23)c1 [TAK-901] | -0.0934 °C | -0.353 °C | -0.544 °C | -0.0329 °C
CCc1nc(-c2cccc(C)c2)c(-c2ccnc(NC(=O)c3ccccc3)c2)s1 [TAK-715] | -0.442 °C | -1.08 °C | -0.0163 °C | -0.496 °C
Cn1cc(C2=C(c3ccc(Cl)cc3Cl)C(=O)NC2=O)c2ccccc21 [SB216763] | -0.35 °C | -1.29 °C | -0.887 °C | -0.115 °C
CO[C@H]1C[C@@H]2CC[C@@H](C)[C@@](O)(O2)C(=O)C(=O)N2CCCC[C@H]2C(=O)O[C@H]([C@H](C)C[C@@H]2CC[C@@H](O)[C@H](OC)C2)CC(=O)[C@H](C)/C=C(\C)[C@@H](O)[C@@H](OC)C(=O)[C@H](C)C[C@H](C)/C=C/C=C/C=C/1C [Rapamycin (Sirolimus)] | -0.483 °C | -1.45 °C | -1.41 °C | -1.03 °C
CCNc1nc(Nc2cc(F)c(C(=O)N3CCOCC3)cc2OC)ncc1C(F)(F)F [GNE-7915] | -0.456 °C | -0.898 °C | -0.927 °C | -0.506 °C
